Experimental data published in ChEMBL document CHEMBL4152321, “Synthesis and antiplasmodial activity of glyco-conjugate hybrids of phenylhydrazono-indolinones and glycosylated 1,2,3-triazolyl-methyl-indoline-2,3-diones” (Eur J Med Chem, 2018).

Assays:
[1] = Selectivity index, ratio of CC50 for African green monkey Vero cells to IC50 for chloroquine-resistant Plasmodium falciparum K1 infected in human erythrocytes; assay type: toxicity, cell-based; settings: read-out: Ratio CC50/IC50
[2] = test system: Plasmodium falciparum; experiment: Antiplasmodial activity against chloroquine-resistant Plasmodium falciparum K1 infected in human erythrocytes after 72 hrs by SYBR Green 1 staining based fluorescence assay; assay type: functional, organism-based; settings: K1, 72 h
[3] = Cytotoxicity against African green monkey Vero cells after 3 days by resazurin dye based fluorescence assay; assay type: cell-based; settings: chlorocebus sabaeus
[4] = test system: Plasmodium falciparum; experiment: Antiplasmodial activity against chloroquine-sensitive Plasmodium falciparum 3D7 infected in human erythrocytes after 72 hrs by SYBR Green 1 staining based fluorescence assay; assay type: functional, organism-based; settings: 3D7, 72 h
[5] = Selectivity index, ratio of CC50 for African green monkey Vero cells to IC50 for chloroquine-sensitive Plasmodium falciparum 3D7 infected in human erythrocytes; assay type: toxicity, cell-based; settings: read-out: Ratio CC50/IC50

| Compound | selectivity ratio [1] | IC50 [2] [µM] | CC50 at 72 h [3] [µM] | IC50 [4] [µM] | selectivity ratio [5] |
| --- | --- | --- | --- | --- | --- |
| CC(=O)C[C@H]1O[C@@H](On2cc(CN3C(=O)/C(=N\Nc4ccc(C#N)cc4)c4ccccc43)nn2)[C@H](OC(C)=O)[C@@H](OC(C)=O)[C@H]1OC(C)=O | 17.6 | 4.28 | 75.5 | 3.67 | 20.6 |
| CC1(C)O[C@H]2O[C@H](Cn3cc(CN4C(=O)/C(=N\Nc5ccccc5)c5ccccc54)nn3)[C@H](O)[C@H]2O1 | 17.6 | 4.66 | 82.1 | 4.67 | 17.6 |
| CC(=O)C[C@H]1O[C@@H](On2cc(CN3C(=O)/C(=N\Nc4ccc(F)cc4)c4ccccc43)nn2)[C@H](OC(C)=O)[C@@H](OC(C)=O)[C@@H]1OC(C)=O | 18.1 | 3.8 | 68.7 | 2.25 | 30.5 |
| CC1(C)O[C@H]2[C@@H](O1)[C@@H](Cn1cc(CN3C(=O)/C(=N\Nc4ccc(C#N)cc4)c4ccccc43)nn1)O[C@@H]1OC(C)(C)O[C@@H]12 |  | 2.77 | 126 | 3.59 | 34.9 |
| N#Cc1ccc(N/N=C2\C(=O)N(Cc3cn(O[C@@H]4O[C@H](CO)[C@@H](O)[C@H](O)[C@H]4O)nn3)c3ccccc32)cc1 |  | 7.01 |  | 7.78 |  |
| CC(=O)C[C@H]1O[C@@H](On2cc(CN3C(=O)/C(=N\Nc4cccc(Cl)c4)c4ccccc43)nn2)[C@H](OC(C)=O)[C@@H](OC(C)=O)[C@H]1OC(C)=O | 45.5 | 1.93 | 87.9 | 2.47 | 35.6 |
| CC(=O)C[C@H]1O[C@@H](On2cc(CN3C(=O)C(=O)c4ccccc43)nn2)[C@H](OC(C)=O)[C@@H](OC(C)=O)[C@H]1OC(C)=O |  | 8.07 |  | 8.4 |  |
| COc1ccc(N/N=C2\C(=O)N(Cc3cn(O[C@@H]4O[C@H](CC(C)=O)[C@@H](OC(C)=O)[C@H](OC(C)=O)[C@H]4OC(C)=O)nn3)c3ccccc32)cc1 | 23.1 | 4.13 | 95.3 | 3.05 | 31.2 |
| O=C1/C(=N\Nc2ccccc2)c2ccccc2N1Cc1cn(O[C@@H]2O[C@H](CO)[C@H](O)[C@H](O)[C@H]2O)nn1 | 9.6 | 8.68 | 83.4 | 4.8 | 17.4 |
| CC1(C)O[C@H]2[C@@H](O1)[C@@H](Cn1cc(CN3C(=O)C(=O)c4ccccc43)nn1)O[C@@H]1OC(C)(C)O[C@@H]12 |  | 7.51 |  | 8.41 |  |
| CC(=O)C[C@H]1O[C@@H](On2cc(CN3C(=O)/C(=N\Nc4ccccc4)c4ccccc43)nn2)[C@H](OC(C)=O)[C@@H](OC(C)=O)[C@H]1OC(C)=O | 15.8 | 4.13 | 65.2 | 3.5 | 18.6 |
| CC1(C)O[C@H]2O[C@H](Cn3cc(CN4C(=O)/C(=N\Nc5ccc(C#N)cc5)c5ccccc54)nn3)[C@H](O)[C@H]2O1 | 30.8 | 3.4 | 105 | 4.79 | 21.8 |
| O=C1/C(=N\Nc2ccc(Br)cc2)c2ccccc2N1Cc1cn(O[C@@H]2O[C@H](CO)[C@@H](O)[C@H](O)[C@H]2O)nn1 |  | 7.95 |  | 9.34 |  |
| CC1(C)O[C@H]2[C@@H](O1)[C@@H](Cn1cc(CN3C(=O)/C(=N\Nc4ccc(Br)cc4)c4ccccc43)nn1)O[C@@H]1OC(C)(C)O[C@@H]12 | 73.9 | 1.61 | 119 | 1.96 | 60.7 |
| CC1(C)O[C@H]2O[C@H](Cn3cc(CN4C(=O)/C(=N\Nc5ccc(F)cc5)c5ccccc54)nn3)[C@H](O)[C@H]2O1 | 21 | 3.99 | 83.8 | 3.08 | 21.2 |
| O=C1/C(=N\Nc2ccc(F)cc2)c2ccccc2N1Cc1cn(O[C@@H]2O[C@H](CO)[C@@H](O)[C@H](O)[C@H]2O)nn1 |  | 8.53 |  | 8 |  |
| CC(=O)C[C@H]1O[C@@H](On2cc(CN3C(=O)/C(=N\Nc4ccccc4)c4ccccc43)nn2)[C@H](OC(C)=O)[C@@H](OC(C)=O)[C@@H]1OC(C)=O | 15.1 | 7.11 | 108 | 3.73 | 28.9 |
| COc1ccc(N/N=C2\C(=O)N(Cc3cn(O[C@@H]4O[C@H](CC(C)=O)[C@H](OC(C)=O)[C@H](OC(C)=O)[C@H]4OC(C)=O)nn3)c3ccccc32)cc1 | 20 | 3.12 | 62.5 | 1.27 | 49.2 |
| CC1(C)O[C@H]2O[C@H](Cn3cc(CN4C(=O)/C(=N\Nc5ccc(Br)cc5)c5ccccc54)nn3)[C@H](O)[C@H]2O1 | 20.7 | 3.52 | 72.9 | 4.05 | 18 |

| Compound | selectivity ratio [1] | IC50 [2] [µM] | CC50 at 72 h [3] [µM] | IC50 [4] [µM] | selectivity ratio [5] |
| --- | --- | --- | --- | --- | --- |
| CC1(C)O[C@H]2[C@@H](O1)[C@@H](Cn1cc(CN3C(=O)/C(=N\Nc4ccc(F)cc4)c4ccccc43)nn1)O[C@@H]1OC(C)(C)O[C@@H]12 | 46.4 | 2.64 | 122 | 3.07 | 39.9 |
| COc1ccc(N/N=C2\C(=O)N(Cc3cn(O[C@@H]4O[C@H](CO)[C@@H](O)[C@H](O)[C@H]4O)nn3)c3ccccc32)cc1 | 16.3 | 4.89 | 79.6 | 3.27 | 24.4 |
| CC(=O)C[C@H]1O[C@@H](On2cc(CN3C(=O)/C(=N\Nc4ccc(F)cc4)c4ccccc43)nn2)[C@H](OC(C)=O)[C@@H](OC(C)=O)[C@H]1OC(C)=O | 26.2 | 3 | 78.6 | 2.44 | 32.2 |
| CC(=O)C[C@H]1O[C@@H](On2cc(CN3C(=O)/C(=N\Nc4cccc(Cl)c4)c4ccccc43)nn2)[C@H](OC(C)=O)[C@@H](OC(C)=O)[C@@H]1OC(C)=O | 13.4 | 8.67 | 117 | 3.96 | 29.4 |
| CC1(C)O[C@H]2O[C@H](Cn3cc(CN4C(=O)C(=O)c5ccccc54)nn3)[C@H](O)[C@H]2O1 | > 58.8 | 3.4 | > 200 | 4.33 | > 46.2 |
| COc1ccc(N/N=C2\C(=O)N(Cc3cn(C[C@H]4O[C@@H]5OC(C)(C)O[C@@H]5[C@H]5OC(C)(C)O[C@H]54)nn3)c3ccccc32)cc1 | 46 | 2.29 | 105 | 1.64 | 64.2 |
| CC(=O)C[C@H]1O[C@@H](On2cc(CN3C(=O)/C(=N\Nc4ccc(C#N)cc4)c4ccccc43)nn2)[C@H](OC(C)=O)[C@@H](OC(C)=O)[C@@H]1OC(C)=O | 13.2 | 5.72 | 75.4 | 3.33 | 22.6 |
| O=C1/C(=N\Nc2ccccc2)c2ccccc2N1Cc1cn(O[C@@H]2O[C@H](CO)[C@@H](O)[C@H](O)[C@H]2O)nn1 | 10.9 | 8.11 | 88.5 | 4.7 | 18.8 |
| CC(=O)C[C@H]1O[C@@H](On2cc(CN3C(=O)C(=O)c4ccccc43)nn2)[C@H](OC(C)=O)[C@@H](OC(C)=O)[C@@H]1OC(C)=O | < 13.7 | > 10 | 137 | 3.54 | 38.6 |
| CC1(C)O[C@H]2[C@@H](O1)[C@@H](Cn1cc(CN3C(=O)/C(=N\Nc4ccccc4)c4ccccc43)nn1)O[C@@H]1OC(C)(C)O[C@@H]12 | 40.2 | 2.62 | 105 | 3.87 | 27.2 |
| O=C1/C(=N\Nc2ccc(Br)cc2)c2ccccc2N1Cc1cn(O[C@@H]2O[C@H](CO)[C@H](O)[C@H](O)[C@H]2O)nn1 | 19.5 | 4.68 | 91.5 | 3.59 | 25.8 |
| CC(=O)C[C@H]1O[C@@H](On2cc(CN3C(=O)/C(=N\Nc4ccc(Br)cc4)c4ccccc43)nn2)[C@H](OC(C)=O)[C@@H](OC(C)=O)[C@H]1OC(C)=O | 28.6 | 2.91 | 83.4 | 2.09 | 39.9 |
| CC1(C)O[C@H]2O[C@H](Cn3cc(CN4C(=O)/C(=N\Nc5cccc(Cl)c5)c5ccccc54)nn3)[C@H](O)[C@H]2O1 | 20.5 | 3.42 | 70 | 4.47 | 15.7 |
| CC(=O)C[C@H]1O[C@@H](On2cc(CN3C(=O)/C(=N\Nc4ccc(Br)cc4)c4ccccc43)nn2)[C@H](OC(C)=O)[C@@H](OC(C)=O)[C@@H]1OC(C)=O | 30.3 | 3.84 | 116 | 3.79 | 30.7 |
| COc1ccc(N/N=C2\C(=O)N(Cc3cn(C[C@H]4O[C@@H]5OC(C)(C)O[C@@H]5[C@H]4O)nn3)c3ccccc32)cc1 | 22.7 | 3.28 | 74.5 | 3.8 | 19.6 |
| CC1(C)O[C@H]2[C@@H](O1)[C@@H](Cn1cc(CN3C(=O)/C(=N\Nc4cccc(Cl)c4)c4ccccc43)nn1)O[C@@H]1OC(C)(C)O[C@@H]12 | 47 | 2.49 | 117 | 3.23 | 36.2 |
| O=C1/C(=N\Nc2cccc(Cl)c2)c2ccccc2N1Cc1cn(O[C@@H]2O[C@H](CO)[C@@H](O)[C@H](O)[C@H]2O)nn1 |  | 7.62 |  | 6.73 |  |
| CCN(CC)CCCC(C)Nc1ccnc2cc(Cl)ccc12 (configuration not stated) [CHLOROQUINE] |  |  | > 500 |  |  |
